According to patent US20030203963A1, “Antimicrobial agent” (priority 2001, published 2003):

Experiments:
[1] = tested on: Listeria innocua; assay: Preliminary growth inhibition test; format: cell-based; settings: 37° C., 20 hours
Description: (§1) Antimicrobial activity was investigated using Salmonella Typhimurium and Listeria innocua.

[2] = tested on: Salmonella Typhimurium DSMZ 554; assay: Preliminary growth inhibition test; format: cell-based; settings: 37° C., 24 hour
Description: as §1

[3] = tested on: Ps. fluorescens 10460; assay: Bioscreen growth inhibition test; format: cell-based, Pseudomonas fluorescens; settings: BS010510, 24 h/30, APP20010213
Experimental: (§2) For broth cultures and Bioscreen testing most bacteria were grown in Brain Heart Infusion (BHI, Oxoid, pH 7.4). Lactobacillus sake A10 was grown in de Man, Rogosa, Sharpe medium ([…], Oxoid). Yeasts were grown in Sabouraud Liquid medium (SLM, Oxoid). Most bacteria were cultured at 30° C. Lactic acid bacteria were grown on solid medium in enriched CO2 atmosphere. Clostridium species were grown in Reinforced Clostridial Medium (RCM) at 37° C. anaerobically. Brochothrix thermosphacta fungi and yeasts were grown at 25° C. Fungi were cultured on Malt Extract Agar (MEA, Oxoid).
(§3) An automated Microbiology Reader Bioscreen C was used to measure growth curves of the strains in the presence and absence of APP. The Bioscreen C measures the development of turbidity (i.e. growth) kinetically by vertical photometry in 200 wells of a honeycomb microtitre plate, simultaneously. The system consists of a Bioscreen C analyser, which is an incubator and measurement unit, integrated with a PC, software (BioLink v 5.30), printer and a ‘Honeycomb 2’ cuvette multiwell plate. Growth curve data can be analysed within the BioLink software or exported to programs such as Excel.
(§4) Broth culture media were dispensed in 270 μl volumes into the wells as directed. Serial dilutions of a filter-sterilised APP stock solution were then dispensed into the same wells, as appropriate. The wells were inoculated with 30 μl of an appropriately diluted overnight broth culture or spore suspension, to give a final inoculum level of […]. The tests were incubated in the Bioscreen C for either 24 h at 30° C., or 72 h at 25° C. (depending on the micro-organism under investigation) with readings taken every 20 minutes after the trays were shaken. After the incubation period was complete the data were exported to Excel for analysis.

[4] = tested on: Ps. fluorescens 1331; assay: Bioscreen growth inhibition test; format: cell-based, Pseudomonas fluorescens; settings: BS010510, 24 h/30, APP20010213
Experimental: as §2, §3, §4

[5] = tested on: Ps. fluorescens 327; assay: Bioscreen growth inhibition test; format: cell-based, Pseudomonas fluorescens; settings: BS010510, 24 h/30, APP20010213
Experimental: as §2, §3, §4

[6] = tested on: Ps. fluorescens 3756; assay: Bioscreen growth inhibition test; format: cell-based, Pseudomonas fluorescens; settings: BS010411, 24 h/30° C.
Experimental: as §2, §3, §4

[7] = tested on: S. carisbergensis CRA6413; assay: Bioscreen growth inhibition test; format: cell-based, Saccharomyces carlsbergensis; settings: APP 213, BS010420, 72 h/25° C.
Experimental: as §2, §3
Broth culture media were dispensed in 270 μl volumes into the wells as directed. […] (depending on the micro-organism under investigation) with readings taken every 20 minutes after the trays were shaken. […]

[8] = tested on: S. cerevisiae 9763; assay: Chicken soup trial at 8° C.; format: cell-based, Saccharomyces cerevisiae; settings: for Effect on growth: chicken soup at 8° C., TCSM010521, APP215
Description: A local supermarket brand of cream of chicken soup was used as a model food system. 600 g packs were purchased from the local supermarket. This was a ‘fresh home-made type’ of soup that was stored in the chill cabinet, with a short shelf life. It was chosen because it is a rich, nutritious food system containing a range of food components including meat, dairy and vegetable.
Ingredients were labelled as: chicken stock (water, duck fat, chicken, salt, flavourings, yeast extracts, pork gelatine, glucose syrup, vegetable concentrate, milk protein, sugar, malto-dextrin, vegetable oil, citric acid, lactose, chicken fat), ilk, chicken (9%), cream (8%), onion, potato, vegetable oil, modified maize starch, wheat flour, lemon juice, salt, white pepper. pH 5.912. Protein: 3.3%; carbohydrate: 4.7%; fat: 7.2%; fibre: 0.2%; sodium: 0.1%
For the test the soup was mixed 2:1 in water (to facilitate sampling and mixing) and sterilised by autoclaving at 121° C. for 15 minutes. For each experiment the pH of the soup was recorded; this was between pH 5.79-5.88.
For TCS010521/8 (incubated at 8° C.), samples were prepared in 27.8 g quantities. 1.5 g of an APP stock solution was added, and the tests inoculated with 0.3 ml of a suitably diluted cell or spore suspension to give a final inoculum of ca. 10^3 cfu/g. APP was tested at 0, 500 and 1000 ppm, and batch number APP20010213 (at 169 mg/ml) was used. The tests were sampled by viable count and then incubated at 8° C. and tested on a twice-weekly basis.

[9] = tested on: Salm Typhimurium S29; assay: Test in cooked minced beef slurry; format: cell-based, Salmonella Typhimurium
Experimental: 1 kg of minced beef, purchased from the local butcher, was mixed with 1 litre of BHI. 200 g portion of this meat slurry was autoclaved. When the meat had cooled, the pH was recorded (pH 6.24), and each pot was inoculated with 2.0 ml of 10^5 spores or cells and the meat re-mixed thoroughly. Each inoculated 200 g pot was distributed as 3×50 g portions. To each pot 1 ml of SDW, 5% or 10% APP (Batch No. APP20010215) was added, and the meat was again mixed thoroughly. An initial viable count was performed, the meat was incubated at 8° C. and sampled twice weekly. The pH of the cooked minced beef slurry was 6.24.

[10] = tested on: TAVC; assay: Uninoculated test in raw meat; format: cell-based; settings: 2000 ppm APP; for Viable counts: raw meat at 8° C.
Experimental: […] of raw minced beef was purchased from the local butcher. 10 g of either a 2% (20,000 ppm) stock solution of APP2001213 or water was added, and the meat mixed thoroughly. Initial counts were carried out, and then the meat was incubated at 8° C. and sampled for 3 consecutive days. The pH of the raw meat was 5.3.

## O=C1CC(CO)OC=C1O (centres unmarked) [APP, Ascopyrone P]
[1]; 500 μg/ml APP, 10e3 cfu/ml
  Inhibition of bacterial growth: slight inhibition
[1]; 500 μg/ml APP, 10e5 cfu/ml
  Inhibition of bacterial growth: almost no inhibition
[1]; 1000 μg/ml APP, 10e3 cfu/ml
  Inhibition of bacterial growth: intermediate inhibition
[1]; 1000 μg/ml APP, 10e5 cfu/ml
  Inhibition of bacterial growth: slight inhibition
[1]; 2000 μg/ml APP, 10e3 cfu/ml
  Inhibition of bacterial growth: almost complete inhibition
[1]; 2000 μg/ml APP, 10e5 cfu/ml
  Inhibition of bacterial growth: intermediate inhibition
[1]; 10e3 or 10e5 cfu/ml
  Inhibitory effect: satisfactory inhibitory effect
[2]; 500 μg/ml APP
  Inhibition of bacterial growth: Intermediate inhibition
[2]; 1000 μg/ml APP
  Inhibition of bacterial growth: strong inhibition
[2]; 2000 μg/ml APP, 10e3 and 10e5 cfu/ml
  Inhibition of bacterial growth: complete inhibition
[2]; 4000 μg/ml APP, 10e3 and 10e5 cfu/ml
  Inhibition of bacterial growth: complete inhibition
[2]; 10e3 or 10e5 cfu/ml
  Inhibitory effect: satisfactory inhibitory effect
[3]
  APP level causing significant inhibition: 1000 ppm
  APP level causing total inhibition: 2000 ppm
[4]
  APP level causing total inhibition: 1000 ppm
[5]
  APP level causing total inhibition: 1000 ppm
[6]; APP 20010213
  APP level causing significant inhibition: 1000 ppm
  APP level causing total inhibition: 2000 ppm
[6]; APP 20010215
  APP level causing significant inhibition: 1000 ppm
  APP level causing total inhibition: 2000 ppm
[7]
  APP level causing significant inhibition: Enhanced growth
  APP level causing total inhibition: >4000
[8]; 500 ppm
  Effect on growth: No effect with 500 and 1000 ppm
[8]; 1000 ppm
  Effect on growth: No effect with 500 and 1000 ppm
[8]; Chicken soup at 8° C. pH 5.8, (1000 ppm)
  No inhibition (effect on growth of target organism by APP): S. cerevisiae (1000
[9]; 2000 ppm, minced beef slurry at 8° C., pH 6.24, TCM010619
  Total inhibition for: Total inhibition by 2000 ppm for >44 d
[9]; Cooked minced beef slurry at 8° C. pH 6.24
  Total inhibition (effect on growth of target organism by 2000 ppm APP): S. Typhimurium
[10]; day 0, TRM010521
  Viable counts: 9.3 × 10^6 cfu/g
[10]; day 1, TRM010521
  Viable counts: 2.2 × 10^8 cfu/g
[10]; day 2, TRM010521
  Viable counts: 1.5 × 10^8 cfu/g
[10]; day 3, TRM010521
  Viable counts: 5.0 × 10^8 cfu/g
[10]; uninoculated raw meat at 8° C., pH 5.3
  Counts in control and APP samples: identical
